Experimental data published in patent publication US20250154169A1, “COMPOUNDS AND METHODS FOR MODULATING SPLICING” (REMIX THERAPEUTICS INC., priority 2021, published 2025).
Counter-ions that a name gives are not always drawn. Like-named read-outs stand apart in the source and are kept apart here.

Legend:
Type in all cases: cell-based, human
[1] = test system: SMN2 mRNA; test: Splicing RT-qPCR gene panel, SMN2 canonical junction (CJ) mRNA; details: Homo sapiens, Tables 4A/4B, read-out: SMN2 (IC50, decrease in CJ mRNA, gene panel)
Outline: (§1)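 First, A673 cells adhered 24 h before dosing, while K562 cells were plated and dosed directly. Both lines were then exposed to compound for 24 h at 37 °C, 5% CO2, top concentration 10 uM. Finally, lysates underwent RT-qPCR of the canonical junction, with ΔΔCt-based relative quantification.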

[2] = test system: Target C mRNA; test: Splicing RT-qPCR gene panel, Target C canonical junction (CJ) mRNA; details: Homo sapiens, Tables 4A/4B, read-out: Target C (IC50, decrease in CJ mRNA, gene panel)
Outline: as §1

[3] = test system: HTT mRNA; test: Splicing RT-qPCR gene panel, HTT canonical junction (CJ) mRNA; details: Homo sapiens, Tables 4A/4B, read-out: HTT (IC50, decrease in CJ mRNA, gene panel)
Outline: as §1

[4] = test system: MYB mRNA; test: Splicing RT-qPCR assay, MYB canonical (CJ) and alternative (AJ) junction mRNA; details: Homo sapiens; for AC50: read-out: MYB AJ (AC50, increase in alternative junction mRNA)
Outline: (§2)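 One-step RT-qPCR on cell lysates, CJ and AJ isoforms quantified; housekeeping normalization GAPDH/GUSB (K562) or PPIA (A673). Cells: A673 in DMEM/10% FBS or K562 in IMDM/10% FBS. Compounds 11-pt 3-fold, top 10 uM, 24 h, 37 °C, 5% CO2.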

[5] = test system: HTT mRNA; test: Splicing RT-qPCR assay, HTT canonical (CJ) and alternative (AJ) junction mRNA; details: Homo sapiens, A673 or K562 cells, 24 hours compound treatment; for IC50: 24 h, read-out: HTT CJ (IC50, decrease in canonical junction mRNA); for AC50: read-out: HTT AJ (AC50, increase in alternative junction mRNA)
Outline: as §2

[6] = 24 h, A673 or K562 cells, 24 hours compound treatment, RT-qPCR
[7] = 24 h, A673 or K562 cells, 24 hours compound treatment, RT-qPCR, read-out: MYB CJ (IC50, decrease in canonical junction mRNA)
[8] = Tables 4A/4B, canonical junction qPCR panel, read-out: MYB (IC50, decrease in CJ mRNA, gene panel)

SMILES | IC50 [1] | IC50 [2] | IC50 [3] | IC50 [4, 7] | IC50 [4, 8] | IC50 [5] | AC50 [4, 6] | AC50 [5]
COc1cc(C(=O)Nc2cc(F)c3nc(C)cn3c2)c2nn(C)cc2c1N1CCNCC1 [Compound 311, N-{8-fluoro-2-methylimidazo[1,2-a]pyridin-6-yl}-5-methoxy-2-methyl-4-(piperazin-1-yl)indazole-7-carboxamide] | < 0.1 µM | > 10 µM | > 10 µM | 0.1 to 1 µM | 0.1 to 1 µM | > 10 µM | 1 to 10 µM | > 10 µM
Cc1cn2cc(NC(=O)c3ccc(N4CCNCC4)c4cn(C)nc34)cc(C#N)c2n1 [Compound 314, N-{8-cyano-2-methylimidazo[1,2-a]pyridin-6-yl}-2-methyl-4-(piperazin-1-yl) indazole-7-carboxamide hydrochloride] | < 0.1 µM | > 10 µM | 1 to 10 µM | < 0.1 µM | < 0.1 µM | 1 to 10 µM | < 0.1 µM | 1 to 10 µM
COc1c(NC(=O)c2ccc(N3CCNCC3)c3cn(C)nc23)cc2cn(C)nc2c1F [Compound 315, N-(7-fluoro-6-methoxy-2-methylindazol-5-yl)-2-methyl-4-(piperazin-1-yl) indazole-7-carboxamide hydrochloride] | < 0.1 µM | 0.1 to 1 µM | 0.1 to 1 µM | < 0.1 µM | < 0.1 µM | 0.1 to 1 µM | < 0.1 µM | 0.1 to 1 µM
Cn1cc2cc(NC(=O)c3ccc(N4CCNCC4)c4cn(C)nc34)cc(F)c2n1 [Compound 319, N-(7-fluoro-2-methylindazol-5-yl)-2-methyl-4-(piperazin-1-yl) indazole-7-carboxamide hydrochloride] | < 0.1 µM | 1 to 10 µM | 1 to 10 µM | < 0.1 µM | < 0.1 µM | 1 to 10 µM | < 0.1 µM | 1 to 10 µM

Now from value to compound, other results behind:

IC50 [1] | IC50 [2] | IC50 [3] | IC50 [4, 7] | IC50 [4, 8] | IC50 [5] | SMILES | AC50 [4, 6] | AC50 [5]
< 0.1 µM | 1 to 10 µM | 1 to 10 µM | 0.1 to 1 µM | 0.1 to 1 µM | 1 to 10 µM | CCCCn1cc2c(N3CCNCC3)ccc(C(=O)Nc3cc(F)c4nc(C)cn4c3)c2n1 [Compound 312, 2-butyl-N-{8-fluoro-2-methylimidazo[1,2-a]pyridin-6-yl}-4-(piperazin-1-yl)indazole-7-carboxamide] | < 0.1 µM | 1 to 10 µM
0.1 to 1 µM | 1 to 10 µM | > 10 µM | 1 to 10 µM | 1 to 10 µM | > 10 µM | Cc1cn2cc(NC(=O)c3ccc(N4CCNCC4)c4cn(Cc5ccncc5)nc34)cc(F)c2n1 [Compound 313, N-{8-fluoro-2-methylimidazo[1,2-a]pyridin-6-yl}-4-(piperazin-1-yl)-2-(pyridin-4-ylmethyl)indazole-7-carboxamide] | 1 to 10 µM | > 10 µM
0.1 to 1 µM | > 10 µM | > 10 µM | 1 to 10 µM | 1 to 10 µM | > 10 µM | Cc1cn2cc(NC(=O)c3ccc(N4CCNCC4)c4cn(CC(F)(F)F)nc34)cc(F)c2n1 [Compound 316, N-{8-fluoro-2-methylimidazo[1,2-a]pyridin-6-yl}-4-(piperazin-1-yl)-2-(2,2,2-trifluoroethyl)indazole-7-carboxamide] | 0.1 to 1 µM | > 10 µM
< 0.1 µM | > 10 µM | > 10 µM | 0.1 to 1 µM | 0.1 to 1 µM | > 10 µM | Cc1cn2cc(NC(=O)c3ccc(N4CCNCC4)c4cn(Cc5cncnc5)nc34)cc(F)c2n1 [Compound 318, N-{8-fluoro-2-methylimidazo[1,2-a]pyridin-6-yl}-4-(piperazin-1-yl)-2-(pyrimidin-5-ylmethyl)indazole-7-carboxamide] | 0.1 to 1 µM | > 10 µM
